# Laboratory results from ChEMBL document CHEMBL5036301, “Heteroaryl ether analogues of an antileishmanial 7-substituted 2-nitroimidazooxazine lead afford attenuated hERG risk: In vitro and in vivo appraisal” (Eur J Med Chem, 2021).
# Assays:
# Leishmania donovani [1] = assay: Antileishmanial activity against Leishmania donovani amastigotes infected in BALB/C mouse assessed as reduction in parasite burden in liver tissue at 25 mg/kg, po administered once per day for 5 days relative to control; conditions: 120 h, read-out: INH
# Leishmania infantum [2] = assay: animal or person; conditions: in Mesocricetus auratus, po, 120 h, read-out: INH
# Description: Antileishmanial activity against Leishmania infantum amastigotes infected in golden hamster assessed as reduction in parasite load in spleen tissue at 12.5 mg/kg, po administered once daily for 5 days relative to control
# Leishmania donovani [3] = assay: Antileishmanial activity against Leishmania donovani amastigotes infected in BALB/C mouse assessed as reduction in parasite burden in liver tissue at 6.25 mg/kg, po administered once per day for 5 days relative to control; type: functional; conditions: 120 h, time 5 day
# Leishmania infantum [4] = assay: Antileishmanial activity against Leishmania infantum amastigotes infected in golden hamster assessed as reduction in parasite load in bone marrow tissue at 50 mg/kg, po administered once daily for 5 days relative to control; type: functional; conditions: 120 h, time 5 day
# Leishmania donovani [5] = assay: Antileishmanial activity against Leishmania donovani amastigotes infected in BALB/C mouse assessed as reduction in parasite burden in liver tissue at 3.13 mg/kg, po administered once per day for 5 days relative to control; type: functional; conditions: 120 h, time 5 day
# Leishmania infantum [6] = assay: Antileishmanial activity against Leishmania infantum amastigotes infected in golden hamster assessed as reduction in parasite load in liver tissue at 50 mg/kg, po administered once daily for 5 days relative to control; type: functional; conditions: 120 h, time 5 day
# Leishmania donovani [7] = assay: Antileishmanial activity against Leishmania donovani amastigotes infected in mouse J774A.1 cells incubated for 72 hrs by luciferase assay; type: functional, organism-based; conditions: J774.A1, 72 h
# Leishmania infantum [8] = assay: Antileishmanial activity against Leishmania infantum amastigotes infected in golden hamster assessed as reduction in parasite load in spleen tissue at 25 mg/kg, po administered once daily for 5 days relative to control; conditions: in Mesocricetus auratus, 120 h, read-out: INH
# Leishmania infantum [9] = assay: Antileishmanial activity against Leishmania infantum amastigotes infected in golden hamster assessed as reduction in parasite load in liver tissue at 25 mg/kg, po administered once daily for 5 days relative to control; conditions: in Mesocricetus auratus, 120 h, read-out: INH
# Leishmania infantum [10] = assay: animal or person; conditions: in Mesocricetus auratus, po, 120 h, read-out: INH; remark: listed apart in the source
# Description: Antileishmanial activity against Leishmania infantum amastigotes infected in golden hamster assessed as reduction in parasite load in liver tissue at 12.5 mg/kg, po administered once daily for 5 days relative to control
# Leishmania infantum [11] = assay: Antileishmanial activity against Leishmania infantum amastigotes infected in golden hamster assessed as reduction in parasite load in spleen tissue at 50 mg/kg, po administered once daily for 5 days relative to control; type: functional; conditions: 120 h, time 5 day
# Leishmania infantum [12] = assay: animal or person; conditions: in Mesocricetus auratus, po, 120 h, read-out: INH; remark: listed apart in the source
# Description: Antileishmanial activity against Leishmania infantum amastigotes infected in golden hamster assessed as reduction in parasite load in bone marrow tissue at 12.5 mg/kg, po administered once daily for 5 days relative to control
# in vivo [13] = conditions: mouse, po, 25 mg/kg
# [14] = Half life in mouse at 25 mg/kg, po measured upto 24 hrs LC-MS/MS analysis; conditions: in vivo
# Leishmania infantum [15] = assay: Antileishmanial activity against Leishmania infantum MHOM/MA(BE)/67 amastigotes infected in macrophages assessed as reduction in parasite burden by giemsa staining based microscopic analysis; type: functional, organism-based
# [16] = Kinetic solubility of compound in water at pH7 by HPLC analysis; conditions: pH 7
# [17] = AUClast in hamster at 41 to 51 mg/kg, po measured upto 24 hrs LC-MS/MS analysis; conditions: chinese hamster, in vivo
# in vivo [18] = conditions: chinese hamster, po
# [19] = test system: Mycobacterium tuberculosis; assay: Antitubercular activity against Mycobacterium tuberculosis H37Rv assessed as reduction in microbial growth under aerobic condition by luminescence analysis; type: functional
# Leishmania donovani [20] = assay: Antileishmanial activity against Leishmania donovani amastigotes infected in BALB/C mouse assessed as reduction in parasite burden in liver tissue at 50 mg/kg, po administered once per day for 5 days relative to control; type: functional; conditions: 120 h, time 5 day
# MRC5 = assay: Cytotoxicity against human MRC5 cells assessed as cell viability after 72 hrs by fluorimetric analysis; type: ADME, cell-based; conditions: MRC5, 72 h
# [21] = Half life in hamster at 41 to 51 mg/kg, po measured upto 24 hrs LC-MS/MS analysis; conditions: chinese hamster, in vivo
# Trypanosoma cruzi = assay: Antitrypanosomal activity against Trypanosoma cruzi Tulahuen CL2 infected in human MRC-5 cells assessed as parasite growth; type: functional, organism-based; conditions: Tulahuen CL2, MRC5
# [22] = AUClast in mouse at 25 mg/kg, po measured upto 24 hrs LC-MS/MS analysis; conditions: in vivo
# [23] = test system: Mycobacterium tuberculosis; assay: Antitubercular activity against Mycobacterium tuberculosis H37Rv assessed as reduction in microbial growth under anaerobic condition by luminescence analysis; type: functional
# in vivo [24] = conditions: chinese hamster, po; remark: listed apart in the source
# in vivo [25] = conditions: mouse, po, 25 mg/kg; remark: listed apart in the source
# hERG (KCNH2) = hERG (KCNH2) (Homo sapiens, UniProt Q12809); assay: Inhibition of human ERG expressed in HEK293 cells at 10 uM relative to control; type: cell-based; conditions: HEK293 cells expressing human ERG
# [26] = Kinetic solubility of compound in 0.1 M Hcl at pH1 by HPLC analysis; type: physicochemical; conditions: pH 1, read-out: Kinetic_solubility
# [27] = Clearance in mouse at 1 mg/kg, iv measured upto 24 hrs LC-MS/MS analysis; conditions: in vivo
# [28] = Initial plasma concentration in mouse at 1 mg/kg, iv measured upto 24 hrs LC-MS/MS analysis
# [29] = mouse, in vivo, po, 25 mg/kg, 24 h
# [30] = Half life in mouse at 1 mg/kg, iv measured upto 24 hrs LC-MS/MS analysis; conditions: in vivo
# [31] = Volume of distribution at steady state in mouse at 1 mg/kg, iv measured upto 24 hrs LC-MS/MS analysis; conditions: in vivo
# [32] = AUClast in mouse at 1 mg/kg, iv measured upto 24 hrs LC-MS/MS analysis; conditions: in vivo, 24 h
# Leishmania infantum [33] = assay: Antileishmanial activity against Leishmania infantum amastigotes infected in golden hamster assessed as reduction in parasite load in spleen tissue at 40 mg/kg, po administered once daily for 5 days relative to control; type: functional; conditions: 120 h, time 5 day
# Leishmania infantum [34] = assay: Antileishmanial activity against Leishmania infantum amastigotes infected in golden hamster assessed as reduction in parasite load in bone marrow tissue at 40 mg/kg, po administered once daily for 5 days relative to control; type: functional; conditions: 120 h, time 5 day
# Leishmania infantum [35] = assay: Antileishmanial activity against Leishmania infantum amastigotes infected in golden hamster assessed as reduction in parasite load in liver tissue at 40 mg/kg, po administered once daily for 5 days relative to control; type: functional; conditions: 120 h, time 5 day
# Chain of hERG (KCNH2) (Q12809 whole entry): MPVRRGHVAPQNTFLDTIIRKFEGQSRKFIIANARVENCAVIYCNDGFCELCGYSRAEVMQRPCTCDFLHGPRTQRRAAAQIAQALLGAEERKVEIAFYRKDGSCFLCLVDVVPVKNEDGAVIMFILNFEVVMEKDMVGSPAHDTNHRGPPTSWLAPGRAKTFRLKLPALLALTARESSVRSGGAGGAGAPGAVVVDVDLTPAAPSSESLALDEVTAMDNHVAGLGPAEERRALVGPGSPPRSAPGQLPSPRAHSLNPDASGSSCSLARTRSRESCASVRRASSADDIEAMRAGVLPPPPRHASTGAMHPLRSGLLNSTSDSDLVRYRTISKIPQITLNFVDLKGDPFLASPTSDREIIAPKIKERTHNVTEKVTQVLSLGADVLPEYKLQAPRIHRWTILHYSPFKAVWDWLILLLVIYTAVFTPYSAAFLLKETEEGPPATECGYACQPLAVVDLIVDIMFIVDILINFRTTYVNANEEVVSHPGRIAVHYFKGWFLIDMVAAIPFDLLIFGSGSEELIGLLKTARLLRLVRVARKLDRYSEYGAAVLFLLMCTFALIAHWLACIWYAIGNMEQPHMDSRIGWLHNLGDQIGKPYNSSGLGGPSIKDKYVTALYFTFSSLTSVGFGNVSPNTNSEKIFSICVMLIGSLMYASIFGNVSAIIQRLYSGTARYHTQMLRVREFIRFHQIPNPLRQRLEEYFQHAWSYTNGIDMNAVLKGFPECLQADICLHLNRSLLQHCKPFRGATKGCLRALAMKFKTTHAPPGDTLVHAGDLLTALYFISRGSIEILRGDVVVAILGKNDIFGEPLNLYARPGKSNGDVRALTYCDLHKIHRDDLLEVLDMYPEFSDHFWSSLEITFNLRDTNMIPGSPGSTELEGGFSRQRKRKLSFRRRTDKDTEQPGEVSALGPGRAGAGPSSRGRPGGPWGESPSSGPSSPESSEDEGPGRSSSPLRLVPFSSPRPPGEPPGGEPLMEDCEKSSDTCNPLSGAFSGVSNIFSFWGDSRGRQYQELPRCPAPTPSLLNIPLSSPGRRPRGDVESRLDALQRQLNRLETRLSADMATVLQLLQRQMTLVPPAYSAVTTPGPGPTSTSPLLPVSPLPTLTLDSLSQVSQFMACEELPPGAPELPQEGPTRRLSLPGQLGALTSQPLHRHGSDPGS
SMILES,inhibition in vivo at 50 mg/kg (Leishmania infantum [4]) [%],inhibition in vivo at 50 mg/kg (Leishmania infantum [6]) [%],IC50 (Leishmania donovani [7]) [nM],inhibition in vivo at 50 mg/kg (Leishmania infantum [11]) [%],Tmax at 24 h (in vivo [13]) [h],half-life at 24 h [14] [h],IC50 (Leishmania infantum [15]) [nM],solubility kinetic [16] [µg/mL],AUC(0-t) at 24 h [17] [ng·h/mL],Cmax at 24 h (in vivo [18]) [ng/mL],MIC [19] [µM],inhibition in vivo at 50 mg/kg (Leishmania donovani [20]) [%],IC50 (MRC5) [nM],IC50 (Trypanosoma cruzi) [nM],AUC(0-t) at 24 h [22] [ng·h/mL],MIC [23] [µM],Tmax at 24 h (in vivo [24]) [h],Cmax at 24 h (in vivo [25]) [ng/mL],inhibition at 10 µM (hERG (KCNH2)) [%],solubility kinetic [26] [µg/mL],also measured
C[C@@]1(COc2ccc(OC(F)(F)F)cc2)CCn2cc([N+](=O)[O-])nc2O1,99.7,100,370,99.9,,,,,,,,,,,,,,,,,inhibition in vivo at 25 mg/kg (Leishmania donovani [1]): 66%; inhibition in vivo at 12.5 mg/kg (Leishmania infantum [2]): 44.4%; inhibition in vivo at 6.25 mg/kg (Leishmania donovani [3]): 49%; inhibition in vivo at 3.13 mg/kg (Leishmania donovani [5]): 18%; inhibition in vivo at 25 mg/kg (Leishmania infantum [8]): 92.3%; inhibition in vivo at 25 mg/kg (Leishmania infantum [9]): 97.2%; inhibition in vivo at 12.5 mg/kg (Leishmania infantum [10]): 47.3%; inhibition in vivo at 12.5 mg/kg (Leishmania infantum [12]): 0%
C[C@]1(COc2ccc(C(F)(F)F)cn2)CCn2cc([N+](=O)[O-])nc2O1,54,51.8,,47.1,3.7,1.5,290,26,72,45,0.16,84,> 64000,340,39600,3.8,0.75,9500,,,half-life at 24 h [21]: 0.72 h
O=[N+]([O-])c1cn2c(n1)OC(COc1ccc(C(F)(F)F)cn1)CC2 (configuration not stated),,,80,,,,> 64000,37,,,2.6,46,> 64000,1000,,20,,,4,32,
CC1(COc2ccc(C(F)(F)F)cn2)CCn2cc([N+](=O)[O-])nc2O1 (configuration not stated),,,210,,0.5,,270,19,,,0.6,96,> 64000,290,,8.9,,15000,18,12,clearance at 24 h [27]: 31 mL/min/kg; C0 at 24 h [28]: 810 ng/mL; F [29]: 100%; half-life at 24 h [30]: 0.85 h; Vd at 24 h [31]: 1.3 L/kg; AUClast ([22]; 24 h): 57100 ng·h/mL; AUClast [32]: 544 ng·h/mL
C[C@@]1(COc2ccc(C(F)(F)F)cn2)CCn2cc([N+](=O)[O-])nc2O1,37.4,46.5,,52.3,2,1.5,750,21,924,310,,38,> 64000,980,183000,,4.3,33000,,,
CCCCCCCCCCCCCCCCOP(=O)([O-])OCC[N+](C)(C)C [MILTEFOSINE],,,,,,,,,,,,,,,,,,,,,inhibition in vivo at 40 mg/kg (Leishmania infantum [33]): 99.7%; inhibition in vivo at 40 mg/kg (Leishmania infantum [34]): 94.9%; inhibition in vivo at 40 mg/kg (Leishmania infantum [35]): 98.5%
